# Like-named read-outs stand apart in the source and are kept apart here.
# Key:
# human DGKζ = molecular target: T1, human DGKζ (Homo sapiens, UniProt Q13574); test: DGKζ LIPGLO assay (extruded liposome substrate), in vitro DGK inhibition; format: biochemical; details: liposome (LIPGLO) assay; read-out: DGKz LIPGLO IC50
# T1 construct: TVMV protease cleavage site (C); Hexa-His (C); made in house; host or cells: Sf9 insect cells (baculovirus, Bac-to-Bac)
# Human venous whole blood = test: Human whole blood IFN-γ assay; format: cell-based; details: human whole blood, normalized to 3 μM reference compound with anti-CD3 plus anti-CD28 as 100% activation, read-out: INFg Whole Blood Normalized Agonist EC50;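 also: blood from healthy donors exposed to compound for 1 h before stimulation with anti-CD3 and anti-CD28 at 1 µg/mL each, IFN-γ quantified in supernatant by AlphaLISA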
# Protocol: Human Whole Blood IFN-γ Assay
# Human venous whole blood (22.5 μL per well), obtained from healthy donors, was pre-treated with compounds for one hour at 37° C. in a humidified 95% air/5% CO2 incubator. The blood was stimulated with 2.5 μL anti-human CD3 and anti-CD28 mAb at a final concentration of 1 μg/mL each for 24 hours at 37° C. IFN-γ in the supernatants was measured using AlphLISA kit (Cat # AL217).
# human DGKα = molecular target: T2, human DGKα (Homo sapiens, UniProt P23743); test: DGKα LIPGLO assay (extruded liposome substrate), in vitro DGK inhibition; format: biochemical; details: liposome (LIPGLO) assay; read-out: DGKa LIPGLO IC50
# T2 construct: TVMV protease cleavage site (C); Hexa-His (C); made in house; host or cells: Sf9 insect cells (baculovirus, Bac-to-Bac)
# T2 sequence (P23743 with tags, fused parts or gaps): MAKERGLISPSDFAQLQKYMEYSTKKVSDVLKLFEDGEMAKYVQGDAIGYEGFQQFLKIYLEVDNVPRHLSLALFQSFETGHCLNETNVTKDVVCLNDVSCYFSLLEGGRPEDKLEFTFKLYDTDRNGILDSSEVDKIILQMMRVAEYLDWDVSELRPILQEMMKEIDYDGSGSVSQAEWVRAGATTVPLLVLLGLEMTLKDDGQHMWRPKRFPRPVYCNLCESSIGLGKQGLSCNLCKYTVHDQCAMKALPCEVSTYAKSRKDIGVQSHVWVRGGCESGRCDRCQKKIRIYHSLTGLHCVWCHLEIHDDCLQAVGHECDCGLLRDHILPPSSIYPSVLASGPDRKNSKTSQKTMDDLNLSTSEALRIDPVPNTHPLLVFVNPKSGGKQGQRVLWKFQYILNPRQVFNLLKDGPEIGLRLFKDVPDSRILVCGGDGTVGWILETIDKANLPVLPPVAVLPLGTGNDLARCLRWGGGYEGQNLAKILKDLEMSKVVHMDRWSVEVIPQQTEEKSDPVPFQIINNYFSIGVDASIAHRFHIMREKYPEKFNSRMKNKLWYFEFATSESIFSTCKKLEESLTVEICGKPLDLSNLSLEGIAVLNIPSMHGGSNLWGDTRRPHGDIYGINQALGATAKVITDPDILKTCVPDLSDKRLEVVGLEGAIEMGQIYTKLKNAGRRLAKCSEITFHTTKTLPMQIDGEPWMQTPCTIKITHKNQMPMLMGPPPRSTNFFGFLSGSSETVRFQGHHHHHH
# T1 sequence (Q13574 with tags, fused parts or gaps isoform Q13574-4): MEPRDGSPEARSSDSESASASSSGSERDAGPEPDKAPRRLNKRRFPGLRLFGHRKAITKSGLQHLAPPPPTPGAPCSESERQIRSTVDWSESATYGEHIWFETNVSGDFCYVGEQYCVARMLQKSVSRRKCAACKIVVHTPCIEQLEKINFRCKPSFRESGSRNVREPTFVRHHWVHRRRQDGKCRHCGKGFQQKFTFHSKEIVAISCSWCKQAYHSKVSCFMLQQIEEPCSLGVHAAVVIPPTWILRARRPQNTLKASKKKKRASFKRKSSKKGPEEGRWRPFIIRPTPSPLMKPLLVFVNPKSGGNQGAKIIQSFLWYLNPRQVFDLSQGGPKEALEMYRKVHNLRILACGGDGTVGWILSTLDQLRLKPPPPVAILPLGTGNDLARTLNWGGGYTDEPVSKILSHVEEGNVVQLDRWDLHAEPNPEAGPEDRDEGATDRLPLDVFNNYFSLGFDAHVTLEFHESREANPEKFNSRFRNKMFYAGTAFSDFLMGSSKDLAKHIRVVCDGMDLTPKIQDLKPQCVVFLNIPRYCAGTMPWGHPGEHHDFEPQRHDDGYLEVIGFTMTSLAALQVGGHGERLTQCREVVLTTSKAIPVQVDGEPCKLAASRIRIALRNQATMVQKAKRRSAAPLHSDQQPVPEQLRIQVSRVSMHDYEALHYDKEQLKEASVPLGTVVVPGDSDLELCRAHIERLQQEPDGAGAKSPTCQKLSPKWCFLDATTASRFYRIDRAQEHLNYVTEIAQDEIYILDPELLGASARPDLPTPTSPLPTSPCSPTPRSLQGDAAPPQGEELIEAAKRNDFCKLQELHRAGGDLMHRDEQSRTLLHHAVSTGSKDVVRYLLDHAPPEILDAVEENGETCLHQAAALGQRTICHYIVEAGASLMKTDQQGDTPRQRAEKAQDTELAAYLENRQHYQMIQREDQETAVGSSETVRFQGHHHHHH
smiles,measurement,setting,value
"CC[C@@H]1CN(c2cc(=O)n(C)c3ccc(C#N)nc23)[C@@H](C)CN1C(C)c1ccc(OC)cc1 (single isomer, unassigned) [Example 482]",IC50,human DGKζ,0.17 µM
same,EC50,Human venous whole blood,0.29 µM
same,IC50,human DGKα,0.13 µM
"CC[C@@H]1CN(c2cc(=O)n(C)c3ccc(C#N)nc23)[C@@H](C)CN1C(C)c1ccc(OC)cc1 (single isomer, unassigned) [Example 483]",IC50,human DGKζ,3.9 µM
same,EC50,Human venous whole blood,4.3 µM
same,IC50,human DGKα,3.3 µM
"C[C@@H]1CN(c2cc(=O)n(C)c3ccc(C#N)nc23)[C@@H](C)CN1C(CO)c1ccc(F)cc1 (single isomer, unassigned) [Example 557]",IC50,human DGKζ,5.3 µM
same,EC50,Human venous whole blood,1.6 µM
same,IC50,human DGKα,0.5 µM
"C[C@@H]1CN(c2cc(=O)n(C)c3ccc(C#N)nc23)[C@@H](C)CN1C(CO)c1ccc(F)cc1 (single isomer, unassigned) [Example 558]",IC50,human DGKζ,100 µM
same,EC50,Human venous whole blood,15 µM
same,IC50,human DGKα,10 µM
"COCC(c1ccc(F)cc1)N1C[C@H](C)N(c2cc(=O)n(C)c3ccc(C#N)nc23)C[C@H]1C (single isomer, unassigned) [Example 559]",IC50,human DGKζ,2.7 µM
same,EC50,"Human venous whole blood; Homo sapiens, 24 h",0.27 µM
same,IC50,human DGKα,0.065 µM
"[2H]C(CC)(c1ccc(F)cc1)N1C[C@H](C)N(c2cc(=O)n(C)c3ccc(C#N)nc23)C[C@H]1C (single isomer, unassigned) [Example 574]",IC50,human DGKζ,28 µM
same,EC50,Human venous whole blood,7.3 µM
same,IC50,human DGKα,1.8 µM
"[2H]C(CC)(c1ccc(F)cc1)N1C[C@H](C)N(c2cc(=O)n(C)c3ccc(C#N)nc23)C[C@H]1C (single isomer, unassigned) [Example 575]",IC50,human DGKζ,1.6 µM
same,EC50,Human venous whole blood,0.36 µM
same,IC50,human DGKα,0.18 µM
"C[C@@H]1CN(c2cc(=O)n(C)c3ccc(C#N)nc23)[C@@H](C)CN1C(c1ccc(F)cc1)C(F)(F)F (single isomer, unassigned) [Example 582]",IC50,human DGKζ,6 µM
same,EC50,Human venous whole blood,1.7 µM
same,IC50,human DGKα,0.44 µM
"C[C@@H]1CN(c2cc(=O)n(C)c3ccc(C#N)nc23)[C@@H](C)CN1C(c1ccc(F)cc1)C(F)(F)F (single isomer, unassigned) [Example 583]",IC50,human DGKζ,0.95 µM
same,EC50,Human venous whole blood,0.46 µM
same,IC50,human DGKα,0.1 µM
"C[C@@H]1CN(c2cc(=O)n(C)c3ccc(C#N)nc23)[C@@H](C)CN1Cc1ccc(OC(F)(F)F)cc1F (single isomer, unassigned) [Example 591]",IC50,human DGKζ,3.9 µM
same,EC50,"Human venous whole blood; Homo sapiens, 24 h",19 µM
same,IC50,human DGKα,3.1 µM
"C[C@@H]1CN(c2cc(=O)n(C)c3ccc(C#N)nc23)[C@@H](C)CN1C(c1c(F)cc(O)cc1F)C(F)(F)F (single isomer, unassigned) [Example 592]",IC50,human DGKζ,19 µM
same,EC50,"Human venous whole blood; Homo sapiens, 24 h",3.6 µM
same,IC50,human DGKα,5.5 µM
"C[C@@H]1CN(c2cc(=O)n(C)c3ccc(C#N)nc23)[C@@H](C)CN1C(c1c(F)cc(O)cc1F)C(F)(F)F (single isomer, unassigned) [Example 627]",IC50,human DGKζ,5.9 µM
same,EC50,"Human venous whole blood; Homo sapiens, 24 h",5.1 µM
same,IC50,human DGKα,5.4 µM
"C[C@@H]1CN(c2cc(=O)n(C)c3ccc(C#N)nc23)[C@@H](C)CN1C(c1c(F)cc(O)cc1F)C(F)(F)F (single isomer, unassigned) [Example 628]",IC50,human DGKζ,7.4 µM
same,EC50,Human venous whole blood,4.8 µM
same,IC50,human DGKα,5.9 µM
"CC(c1cccc(C(F)(F)F)n1)N1C[C@H](C)N(c2cc(=O)n(C)c3ccc(C#N)nc23)C[C@H]1C (single isomer, unassigned) [Example 636]",IC50,human DGKζ,8 µM
same,EC50,Human venous whole blood,3.9 µM
same,IC50,human DGKα,12 µM
"CC(c1cccc(C(F)(F)F)n1)N1C[C@H](C)N(c2cc(=O)n(C)c3ccc(C#N)nc23)C[C@H]1C (single isomer, unassigned) [Example 637]",IC50,human DGKζ,0.84 µM
same,EC50,Human venous whole blood,10 µM
same,IC50,human DGKα,0.17 µM
"CC(c1cccc2ncccc12)N1C[C@H](C)N(c2cc(=O)n(C)c3ccc(C#N)nc23)C[C@H]1C (single isomer, unassigned) [Example 638]",IC50,human DGKζ,1.8 µM
same,EC50,"Human venous whole blood; Homo sapiens, 24 h",20 µM
same,IC50,human DGKα,110 µM
"CC(c1cccc2ncccc12)N1C[C@H](C)N(c2cc(=O)n(C)c3ccc(C#N)nc23)C[C@H]1C (single isomer, unassigned) [Example 639]",IC50,human DGKζ,18 µM
same,EC50,Human venous whole blood,20 µM
same,IC50,human DGKα,98 µM
"CC(c1ccc(F)cn1)N1C[C@H](C)N(c2cc(=O)n(C)c3ccc(C#N)nc23)C[C@H]1C (single isomer, unassigned) [Example 640]",IC50,human DGKζ,3.9 µM
same,EC50,Human venous whole blood,1.6 µM
same,IC50,human DGKα,0.036 µM
"CC(c1ccc(F)cn1)N1C[C@H](C)N(c2cc(=O)n(C)c3ccc(C#N)nc23)C[C@H]1C (single isomer, unassigned) [Example 641]",IC50,human DGKζ,15 µM
same,EC50,Human venous whole blood,5.9 µM
same,IC50,human DGKα,1.7 µM
"CC(c1ccc(C(F)(F)F)cn1)N1C[C@H](C)N(c2cc(=O)n(C)c3ccc(C#N)nc23)C[C@H]1C (single isomer, unassigned) [Example 643]",IC50,human DGKζ,1.6 µM
same,EC50,Human venous whole blood,5.3 µM
same,IC50,human DGKα,0.31 µM
"COc1ccc(C(C)N2C[C@H](C)N(c3cc(=O)n(C)c4ccc(C#N)nc34)C[C@H]2C)nc1 (single isomer, unassigned) [Example 644]",IC50,human DGKζ,0.5 µM
same,EC50,Human venous whole blood,3.8 µM
same,IC50,human DGKα,0.16 µM
"COc1ccc(C(C)N2C[C@H](C)N(c3cc(=O)n(C)c4ccc(C#N)nc34)C[C@H]2C)nc1 (single isomer, unassigned) [Example 645]",IC50,human DGKζ,18 µM
same,EC50,Human venous whole blood,17 µM
same,IC50,human DGKα,1.9 µM
"CC(c1nc(C2CC2)cs1)N1C[C@H](C)N(c2cc(=O)n(C)c3ccc(C#N)nc23)C[C@H]1C (single isomer, unassigned) [Example 646]",IC50,human DGKζ,2.7 µM
same,EC50,"Human venous whole blood; Homo sapiens, 24 h",6.7 µM
same,IC50,human DGKα,1.6 µM
"CC(c1nc(C2CC2)cs1)N1C[C@H](C)N(c2cc(=O)n(C)c3ccc(C#N)nc23)C[C@H]1C (single isomer, unassigned) [Example 647]",IC50,human DGKζ,0.075 µM
same,EC50,Human venous whole blood,5.2 µM
same,IC50,human DGKα,0.22 µM
"Cc1cc(C(C)N2C[C@H](C)N(c3cc(=O)n(C)c4ccc(C#N)nc34)C[C@H]2C)no1 (single isomer, unassigned) [Example 649]",IC50,human DGKζ,3.4 µM
same,EC50,"Human venous whole blood; Homo sapiens, 24 h",20 µM
same,IC50,human DGKα,3.6 µM
"CC(c1ccc2nccnc2c1)N1C[C@H](C)N(c2cc(=O)n(C)c3ccc(C#N)nc23)C[C@H]1C (single isomer, unassigned) [Example 650]",IC50,human DGKζ,0.011 µM
same,EC50,Human venous whole blood,0.29 µM
same,IC50,human DGKα,2.5 µM
"CC(c1ccc2nccnc2c1)N1C[C@H](C)N(c2cc(=O)n(C)c3ccc(C#N)nc23)C[C@H]1C (single isomer, unassigned) [Example 651]",IC50,human DGKζ,0.95 µM
same,EC50,Human venous whole blood,20 µM
same,IC50,human DGKα,50 µM
"CC(c1ccc2c(c1)OC(F)(F)O2)N1C[C@H](C)N(c2cc(=O)n(C)c3ccc(C#N)nc23)C[C@H]1C (single isomer, unassigned) [Example 654]",IC50,human DGKζ,0.13 µM
same,EC50,Human venous whole blood,0.4 µM
same,IC50,human DGKα,2 µM
"CC(c1ccc2c(c1)OC(F)(F)O2)N1C[C@H](C)N(c2cc(=O)n(C)c3ccc(C#N)nc23)C[C@H]1C (single isomer, unassigned) [Example 655]",IC50,human DGKζ,1.3 µM
same,EC50,Human venous whole blood,6.6 µM
same,IC50,human DGKα,4.2 µM
"COc1cccc(C(c2ccc(F)cc2)N2C[C@H](C)N(c3cc(=O)n(C)c4ccc(C#N)nc34)C[C@H]2C)c1 (single isomer, unassigned) [Example 660]",IC50,human DGKζ,0.51 µM
same,EC50,"Human venous whole blood; Homo sapiens, 24 h",0.66 µM
same,IC50,human DGKα,17 µM
"COc1cccc(C(c2ccc(F)cc2)N2C[C@H](C)N(c3cc(=O)n(C)c4ccc(C#N)nc34)C[C@H]2C)c1 (single isomer, unassigned) [Example 661]",IC50,human DGKζ,1.7 µM
same,EC50,Human venous whole blood,1 µM
same,IC50,human DGKα,4.1 µM
"C[C@@H]1CN(c2cc(=O)n(C)c3ccc(C#N)nc23)[C@@H](C)CN1C(c1ccc(F)cc1)c1ccc(N2CCOCC2)cc1 (single isomer, unassigned) [Example 662]",IC50,human DGKζ,> 250 µM
same,EC50,"Human venous whole blood; Homo sapiens, 24 h",20 µM
same,IC50,human DGKα,> 250 µM
"C[C@@H]1CN(c2cc(=O)n(C)c3ccc(C#N)nc23)[C@@H](C)CN1C(c1ccc(F)cc1)c1ccc(N2CCOCC2)cc1 (single isomer, unassigned) [Example 663]",IC50,human DGKζ,24 µM
same,EC50,Human venous whole blood,20 µM
same,IC50,human DGKα,> 250 µM
"C[C@@H]1CN(c2cc(=O)n(C)c3ccc(C#N)nc23)[C@@H](C)CN1C(c1ccccc1)c1ccc(Cl)cc1 (single isomer, unassigned) [Example 670]",IC50,human DGKζ,3.6 µM
same,EC50,Human venous whole blood,2.8 µM
same,IC50,human DGKα,1.1 µM
"C[C@@H]1CN(c2cc(=O)n(C)c3ccc(C#N)nc23)[C@@H](C)CN1C(c1ccccc1)c1ccc(Cl)cc1 (single isomer, unassigned) [Example 671]",IC50,human DGKζ,3.2 µM
same,EC50,Human venous whole blood,1.2 µM
same,IC50,human DGKα,3.3 µM
"C[C@@H]1CN(c2cc(=O)n(C)c3ccc(C#N)nc23)[C@@H](C)CN1C(c1ccc(F)cc1)c1cccc(N2CCOCC2)c1 (single isomer, unassigned) [Example 672]",IC50,human DGKζ,1.7 µM
same,EC50,Human venous whole blood,9.5 µM
same,IC50,human DGKα,92 µM
"C[C@@H]1CN(c2cc(=O)n(C)c3ccc(C#N)nc23)[C@@H](C)CN1C(c1ccc(F)cc1)c1cccc(N2CCOCC2)c1 (single isomer, unassigned) [Example 673]",IC50,human DGKζ,2.3 µM
same,EC50,Human venous whole blood,1.3 µM
same,IC50,human DGKα,4.7 µM
"C[C@@H]1CN(c2cc(=O)n(C)c3ccc(C#N)nc23)[C@@H](C)CN1C(c1ccc(F)cc1)c1ccc(C(F)(F)F)cn1 (single isomer, unassigned) [Example 680]",IC50,human DGKζ,2.5 µM
same,EC50,"Human venous whole blood; Homo sapiens, 24 h",0.48 µM
same,IC50,human DGKα,1.2 µM
"C[C@@H]1CN(c2cc(=O)n(C)c3ccc(C#N)nc23)[C@@H](C)CN1C(c1ccc(F)cc1)c1ccc(C(F)(F)F)cn1 (single isomer, unassigned) [Example 681]",IC50,human DGKζ,0.35 µM
same,EC50,Human venous whole blood,0.27 µM
same,IC50,human DGKα,0.1 µM

# From US10669272B2, “Substituted naphthyridinone compounds useful as T cell activators” (BRISTOL-MYERS SQUIBB COMPANY, priority 2018, dated 2020)
